System: subjects with major depressive disorder (MDD) who were inadequate responders to citalopram
Assay: HAMD-17 total score, Phase 2b trial of TC-5214 as add-on to citalopram
Format: in vivo, human
Description: The Hamilton Rating Scale for Depression (HRSD), also known as the Hamilton Depression Rating Scale (HDRS) or abbreviated to HAM-D or HAMD, is a multiple choice questionnaire that clinicians may use to rate the severity of a patient's major depression (Hamilton 1967). The questionnaire rates the severity of symptoms observed in depression such as low mood, insomnia, agitation, anxiety and weight loss. The questionnaire is presently one of the most commonly used scales for rating depression in medical research. The clinician chooses the possible responses to each question by interviewing the patient and by observing the patient's symptoms. Each question has multiple possible responses which increase in severity. Although Hamilton's original scale had 17 questions, others later developed HRSD scales with different numbers of questions, the greatest of which is 29 (HRSD-29). Clinicians can use the HRSD in place of, or in conjunction with, the Montgomery-Åsberg Depression Rating Scale (MADRS), the Beck Depression Inventory (BDI), the Zung Self-Rating Depression Scale, the Wechsler Depression Rating Scale, the […] Depression Rating Scale, the Inventory of Depressive Symptomatology (IDS), the Quick Inventory of Depressive Symptomatology (QIDS), and other questionnaires. […] The results on all of the trial's secondary efficacy measures, including assessments of depression, irritability, disability, cognition, severity of illness and global improvement, were also statistically significant in favor of TC-5214 on an intent to treat basis. The Phase 2b trial of TC-5214 as an augmentation treatment for MDD was a two-phase trial conducted at 20 sites in India and three sites in the United States. In the first phase, 579 subjects with MDD received first-line treatment with citalopram hydrobromide for eight weeks, 20 mg daily for the first four weeks and 40 mg daily for the next four weeks. Citalopram, an approved treatment for MDD marketed in the United States as […]®, is from the drug class known as selective serotonin reuptake inhibitors. At the end of the eight weeks, subjects whose MADRS score had improved less than 50 percent and whose CGI-SI score was no lower than 4 were considered partial or non responders and randomized into the double blind second phase of the trial. In the double blind second phase, subjects continued their citalopram treatment and also received either add-on TC-5214 or add-on placebo for an additional eight weeks. The daily dosage of TC-5214 was initially 2 mg and could be increased at the discretion of the investigator to 4 mg and to 8 mg based on tolerability and therapeutic response. The primary outcome measure for the trial was mean change between TC-5214 and placebo from double blind baseline as measured by HAM-D at week 16. The intent to treat dataset included 265 subjects in the second phase. In more detail, a multi-center double-blind, randomized, placebo-controlled, parallel group, flexible dose titration study of TC-5214 as adjunctive therapy in subjects with major depressive disorder (MDD) who were inadequate responders to citalopram was conducted in centers in the US and India. The study consisted of a screening period, baseline/washout period, open-label phase, double-blind phase, and a follow-up visit. Subject participation in the study could continue for up to 16 weeks of treatment. Following a washout period of up to 28 days for other antidepressants, subjects with MDD and a MADRS total score >/=28 and a Clinical Global Impression-Severity (CGI-S) score >/=4 were enrolled on Day 1 into an open-label citalopram-only phase of the study. This phase lasted 8 weeks, with citalopram (CIT) dose increased from a once-daily dose of 20 mg (Day 1 through Week 4) to 40 mg (Week 4 through Week 8). A total of 579 subjects entered the open-label citalopram phase. […]

[1] = ITT and PP, at almost every assessment week, result in words
[2] = ITT, Double Blind Week 8 (Baseline), before TC-5214
[3] = ITT, Double Blind Week 18 (Follow-up)
[4] = ITT, Double Blind Week 18 LOCF (Follow-up)
[5] = ITT, Double Blind Week 18 LOCF (Follow-up), change from Week 16

With `CNC1(C)C2CCC(C2)C1(C)C` (stereo in doubt) [TC-5214, (S)—N,2,3,3-tetramethylnorbornan-2-amine] the “HAMD-17 total score change from baseline compared with placebo” value (ITT and PP populations, result in words) was “statistically significant decreases (improvements)”, the “HAMD responders (reduction from baseline ≧50%) proportion compared with placebo” value [1] was “higher proportion of responders” and the “HAMD-17 remission proportion compared with placebo” value [1] was “higher proportion of subjects in remission”. For the same molecule, the “HAMD-17 total score, observed Mean” value [2] was 23.5, the “HAMD-17 total score, observed Median” value [2] was 24.0 and the “HAMD-17 Remission (Score ≦7): Subjects with Remission (number)” value (ITT, Double Blind Week 9) was 1. The “HAMD-17 Remission (Score ≦7): Subjects with Remission (percentage)” value (ITT, Double Blind Week 9) was “(1%)”, the “HAMD-17 Remission (Score ≦7): Subjects without Remission (number)” value (ITT, Double Blind Week 9) was 132 and the “HAMD-17 Remission (Score ≦7): Subjects without Remission (percentage)” value (ITT, Double Blind Week 9) was “(99%)”. For the same molecule, the “HAMD-17 Remission (Score ≦10): Subjects with Remission (number)” value (ITT, Double Blind Week 9) was 4, the “HAMD-17 Remission (Score ≦10): Subjects with Remission (percentage)” value (ITT, Double Blind Week 9) was “(3%)” and the “HAMD-17 Remission (Score ≦10): Subjects without Remission (number)” value (ITT, Double Blind Week 9) was 129. The “HAMD-17 Remission (Score ≦10): Subjects without Remission (percentage)” value (ITT, Double Blind Week 9) was “(97%)”, the “HAMD-17 reduction from baseline ≧50%: Subjects with Response (number)” value (ITT, Double Blind Week 9) was 4 and the “HAMD-17 reduction from baseline ≧50%: Subjects with Response (percentage)” value (ITT, Double Blind Week 9) was “(3%)”. For the same molecule, the “HAMD-17 reduction from baseline ≧50%: Subjects without Response (number)” value (ITT, Double Blind Week 9) was 129, the “HAMD-17 reduction from baseline ≧50%: Subjects without Response (percentage)” value (ITT, Double Blind Week 9) was “(97%)” and the “HAMD-17 Remission (Score ≦7): Subjects with Remission (number)” value (ITT, Double Blind Week 10) was 6. The “HAMD-17 Remission (Score ≦7): Subjects with Remission (percentage)” value (ITT, Double Blind Week 10) was “(5%)”, the “HAMD-17 Remission (Score ≦7): Subjects without Remission (number)” value (ITT, Double Blind Week 10) was 127 and the “HAMD-17 Remission (Score ≦7): Subjects without Remission (percentage)” value (ITT, Double Blind Week 10) was “(95%)”. For the same molecule, the “HAMD-17 Remission (Score ≦10): Subjects with Remission (number)” value (ITT, Double Blind Week 10) was 20, the “HAMD-17 Remission (Score ≦10): Subjects with Remission (percentage)” value (ITT, Double Blind Week 10) was “(15%)” and the “HAMD-17 Remission (Score ≦10): Subjects without Remission (number)” value (ITT, Double Blind Week 10) was 113. For the same molecule, the “HAMD-17 Remission (Score ≦10): Subjects without Remission (percentage)” value (ITT, Double Blind Week 10) was “(85%)”, the “HAMD-17 reduction from baseline ≧50%: Subjects with Response (number)” value (ITT, Double Blind Week 10) was 23 and the “HAMD-17 reduction from baseline ≧50%: Subjects with Response (percentage)” value (ITT, Double Blind Week 10) was “(17%)”. The “HAMD-17 reduction from baseline ≧50%: Subjects without Response (number)” value (ITT, Double Blind Week 10) was 110, the “HAMD-17 reduction from baseline ≧50%: Subjects without Response (percentage)” value (ITT, Double Blind Week 10) was “(83%)” and the “HAMD-17 Remission (Score ≦7): Subjects with Remission (number)” value (ITT, Double Blind Week 12) was 20. For the same molecule, the “HAMD-17 Remission (Score ≦7): Subjects with Remission (percentage)” value (ITT, Double Blind Week 12) was “(15%)”, the “HAMD-17 Remission (Score ≦7): Subjects without Remission (number)” value (ITT, Double Blind Week 12) was 113 and the “HAMD-17 Remission (Score ≦7): Subjects without Remission (percentage)” value (ITT, Double Blind Week 12) was “(85%)”. For the same molecule, the “HAMD-17 Remission (Score ≦10): Subjects with Remission (number)” value (ITT, Double Blind Week 12) was 40, the “HAMD-17 Remission (Score ≦10): Subjects with Remission (percentage)” value (ITT, Double Blind Week 12) was “(30%)” and the “HAMD-17 Remission (Score ≦10): Subjects without Remission (number)” value (ITT, Double Blind Week 12) was 93. The “HAMD-17 Remission (Score ≦10): Subjects without Remission (percentage)” value (ITT, Double Blind Week 12) was “(70%)”, the “HAMD-17 reduction from baseline ≧50%: Subjects with Response (number)” value (ITT, Double Blind Week 12) was 45 and the “HAMD-17 reduction from baseline ≧50%: Subjects with Response (percentage)” value (ITT, Double Blind Week 12) was “(34%)”. The “HAMD-17 reduction from baseline ≧50%: Subjects without Response (number)” value (ITT, Double Blind Week 12) was 88, the “HAMD-17 reduction from baseline ≧50%: Subjects without Response (percentage)” value (ITT, Double Blind Week 12) was “(66%)” and the “HAMD-17 Remission (Score ≦7): Subjects with Remission (number)” value (ITT, Double Blind Week 14) was 37. The “HAMD-17 Remission (Score ≦7): Subjects with Remission (percentage)” value (ITT, Double Blind Week 14) was “(28%)”, the “HAMD-17 Remission (Score ≦7): Subjects without Remission (number)” value (ITT, Double Blind Week 14) was 96 and the “HAMD-17 Remission (Score ≦7): Subjects without Remission (percentage)” value (ITT, Double Blind Week 14) was “(72%)”. For the same molecule, the “HAMD-17 Remission (Score ≦10): Subjects with Remission (number)” value (ITT, Double Blind Week 14) was 60, the “HAMD-17 Remission (Score ≦10): Subjects with Remission (percentage)” value (ITT, Double Blind Week 14) was “(45%)” and the “HAMD-17 Remission (Score ≦10): Subjects without Remission (number)” value (ITT, Double Blind Week 14) was 73. For the same molecule, the “HAMD-17 Remission (Score ≦10): Subjects without Remission (percentage)” value (ITT, Double Blind Week 14) was “(55%)”, the “HAMD-17 reduction from baseline ≧50%: Subjects with Response (number)” value (ITT, Double Blind Week 14) was 72 and the “HAMD-17 reduction from baseline ≧50%: Subjects with Response (percentage)” value (ITT, Double Blind Week 14) was “(54%)”. For the same molecule, the “HAMD-17 reduction from baseline ≧50%: Subjects without Response (number)” value (ITT, Double Blind Week 14) was 61, the “HAMD-17 reduction from baseline ≧50%: Subjects without Response (percentage)” value (ITT, Double Blind Week 14) was “(46%)” and the “HAMD-17 Remission (Score ≦7): Subjects with Remission (number)” value (ITT, Double Blind Week 16) was 52. For the same molecule, the “HAMD-17 Remission (Score ≦7): Subjects with Remission (percentage)” value (ITT, Double Blind Week 16) was “(39%)”, the “HAMD-17 Remission (Score ≦7): Subjects without Remission (number)” value (ITT, Double Blind Week 16) was 81 and the “HAMD-17 Remission (Score ≦7): Subjects without Remission (percentage)” value (ITT, Double Blind Week 16) was “(61%)”. For the same molecule, the “HAMD-17 Remission (Score ≦10): Subjects with Remission (number)” value (ITT, Double Blind Week 16) was 83, the “HAMD-17 Remission (Score ≦10): Subjects with Remission (percentage)” value (ITT, Double Blind Week 16) was “(62%)” and the “HAMD-17 Remission (Score ≦10): Subjects without Remission (number)” value (ITT, Double Blind Week 16) was 50. For the same molecule, the “HAMD-17 Remission (Score ≦10): Subjects without Remission (percentage)” value (ITT, Double Blind Week 16) was “(38%)”, the “HAMD-17 reduction from baseline ≧50%: Subjects with Response (number)” value (ITT, Double Blind Week 16) was 90 and the “HAMD-17 reduction from baseline ≧50%: Subjects with Response (percentage)” value (ITT, Double Blind Week 16) was “(68%)”. The “HAMD-17 reduction from baseline ≧50%: Subjects without Response (number)” value (ITT, Double Blind Week 16) was 43, the “HAMD-17 reduction from baseline ≧50%: Subjects without Response (percentage)” value (ITT, Double Blind Week 16) was “(32%)” and the “HAMD-17 total score, observed Mean” value (ITT, Double Blind Week 16 LOCF) was 9.8. The “HAMD-17 total score, observed Median” value (ITT, Double Blind Week 16 LOCF) was 8.0, the “HAMD-17 Mean Difference between TC-5214 and Placebo” value (ITT, Double Blind Week 16 LOCF (change from Week 8)) was 6.00 and the “HAMD-17 Remission (Score ≦7): Subjects with Remission (number)” value [3] was 60. For the same molecule, the “HAMD-17 Remission (Score ≦7): Subjects with Remission (percentage)” value [3] was “(45%)”, the “HAMD-17 Remission (Score ≦7): Subjects without Remission (number)” value [3] was 73 and the “HAMD-17 Remission (Score ≦7): Subjects without Remission (percentage)” value [3] was “(55%)”. The “HAMD-17 Remission (Score ≦10): Subjects with Remission (number)” value [3] was 85, the “HAMD-17 Remission (Score ≦10): Subjects with Remission (percentage)” value [3] was “(64%)” and the “HAMD-17 Remission (Score ≦10): Subjects without Remission (number)” value [3] was 48. The “HAMD-17 Remission (Score ≦10): Subjects without Remission (percentage)” value [3] was “(36%)”, the “HAMD-17 reduction from baseline ≧50%: Subjects with Response (number)” value [3] was 89 and the “HAMD-17 reduction from baseline ≧50%: Subjects with Response (percentage)” value [3] was “(67%)”. For the same molecule, the “HAMD-17 reduction from baseline ≧50%: Subjects without Response (number)” value [3] was 44, the “HAMD-17 reduction from baseline ≧50%: Subjects without Response (percentage)” value [3] was “(33%)” and the “HAMD-17 total score, observed Mean” value [4] was 9.4. For the same molecule, the “HAMD-17 total score, observed Median” value [4] was 8.0, the “HAMD-17 Adjusted Mean change” value [5] was −0.70 and the “HAMD-17 Mean Difference between TC-5214 and Placebo” value [5] was −0.13. The “HAMD-17 Difference vs Placebo + CIT” value (ITT, Week 8 to Week 16 LOCF) was −6.0 and the “HAMD-17 total (raw) score change from baseline compared with placebo by week” value (ITT, Weeks 10, 12, 14, and 16, result in words) was “statistically significant decreases (improvements)”.

From patent publication US20120190752A1, “EXO-S-MECAMYLAMINE METHOD, USE, AND COMPOUND FOR TREATMENT” (Targacept Inc., priority 2009, published 2012)
